Experimental data reported in ChEMBL document CHEMBL4041541, “Solvent free, catalyst free, microwave or grinding assisted synthesis of bis-cyclic imide derivatives and their evaluation for anticancer activity” (Bioorg Med Chem Lett, 2017).

Experiments:
HepG2 [1] = experiment: Growth inhibition of human HepG2 cells at 1 x 10^-5 M after 24 hrs by MTT assay relative to control; format: functional; details: HepG2, 24 h, read-out: GI
NCI-H522 [2] = experiment: Growth inhibition of human NCI-H522 cells at 1 x 10^-5 M after 24 hrs by MTT assay relative to control; format: functional; details: NCI-H522, 24 h, read-out: GI
HCT-15 [3] = experiment: Growth inhibition of human HCT15 cells at 1 x 10^-5 M after 24 hrs by MTT assay relative to control; format: functional; details: HCT-15, 24 h, read-out: GI
T47D [4] = experiment: Growth inhibition of human T47D cells at 1 x 10^-5 M after 24 hrs by MTT assay relative to control; format: functional; details: read-out: GI
PA-1 [5] = experiment: Growth inhibition of human PA1 cells at 1 x 10^-5 M after 24 hrs by MTT assay relative to control; format: functional; details: PA-1, 24 h, read-out: GI
HCT-15 [6] = experiment: Growth inhibition of human HCT15 cells after 24 hrs by MTT assay; format: functional, cell-based; details: HCT-15, 24 h
HepG2 [7] = experiment: Growth inhibition of human HepG2 cells after 24 hrs by MTT assay; format: functional, cell-based; details: HepG2, 24 h
HEK-293T = experiment: Growth inhibition of HEK293T cells after 24 hrs by MTT assay; format: cell-based; details: Homo sapiens
NCI-H522 [8] = experiment: Growth inhibition of human NCI-H522 cells after 24 hrs by MTT assay; format: functional, cell-based; details: NCI-H522, 24 h
[9] = Selectivity index, ratio of IC50 for HEK293T cells to IC50 for human T47D cells; format: functional
PA-1 [10] = experiment: Growth inhibition of human PA1 cells after 24 hrs by MTT assay; format: functional, cell-based; details: PA-1, 24 h
T47D [11] = experiment: Growth inhibition of human T47D cells after 24 hrs by MTT assay; format: functional, cell-based
[12] = Selectivity index, ratio of IC50 for HEK293T cells to IC50 for human PA1 cells; format: functional
[13] = Selectivity index, ratio of IC50 for HEK293T cells to IC50 for human HepG2 cells; format: functional
[14] = Selectivity index, ratio of IC50 for HEK293T cells to IC50 for human NCI-H522 cells; format: functional
[15] = Selectivity index, ratio of IC50 for HEK293T cells to IC50 for human HCT15 cells; format: functional

Row | SMILES | inhibition of growth at 10 µM (HepG2 [1]) [%] | inhibition of growth at 10 µM (NCI-H522 [2]) [%] | inhibition of growth at 10 µM (HCT-15 [3]) [%] | inhibition of growth at 10 µM (T47D [4]) [%] | inhibition of growth at 10 µM (PA-1 [5]) [%] | IC50 (HCT-15 [6]) [µM] | IC50 (HepG2 [7]) [µM] | IC50 (HEK-293T) [µM] | IC50 (NCI-H522 [8]) [µM] | Ratio IC50 [9] | IC50 (PA-1 [10]) [µM] | IC50 (T47D [11]) [µM] | Ratio IC50 [12] | Ratio IC50 [13] | Ratio IC50 [14] | Ratio IC50 [15]
1 | O=C1CNCC(=O)N1CCCC1OCC2(CO1)COC(CCCN1C(=O)CNCC1=O)OC2 (stereo not given) | 37 | 25 | 21 | 31 | 12 |  |  |  |  |  |  |  |  |  |  | 
2 | O=C1CNCC(=O)N1CCN1C(=O)CNCC1=O | 15 | 30 | 30 | 38 | 20 |  |  |  |  |  |  |  |  |  |  | 
3 | O=C1CNCC(=O)N1CCCN1CCN(CCCN2C(=O)CNCC2=O)CC1 | 21 | 19 | 14 | 24 | 29 |  |  |  |  |  |  |  |  |  |  | 
4 | C[C@@H]1C[C@@H]([C@H](O)CC2CC(=O)NC(=O)C2)C(=O)[C@@H](C)C1 [CYCLOHEXIMIDE] | 21 | 18 | 21 | 23 | 33 | 52.3 | 55.1 | > 100 | 62.1 |  |  |  |  |  |  | 
5 | O=C1c2nc[nH]c2C(=O)N1CCN1C(=O)c2nc[nH]c2C1=O | 38 | 56 | 33 | 21 | 24 | 17.9 | 24.1 | 62.7 | 32.8 | 2.5 - 4.5 | 17.5 | 19.1 | 2.5 - 4.5 | 2.5 - 4.5 | 2.5 - 4.5 | 2.5 - 4.5
6 | CC(CN1C(=O)c2nc[nH]c2C1=O)N1C(=O)c2nc[nH]c2C1=O (stereo not given) | 36 | 3 | 30 | 32 | 20 |  |  |  |  |  |  |  |  |  |  | 
7 | O=C1C2CC=CCC2C(=O)N1CCCC1OCC2(CO1)COC(CCCN1C(=O)C3CC=CCC3C1=O)OC2 (stereo not given) | 25 | 19 | 11 | 39 | 7 |  |  |  |  |  |  |  |  |  |  | 
8 | O=C1C2CCCCC2C(=O)N1CCOCCOCCN1C(=O)C2CCCCC2C1=O (stereo not given) | 37 | 29 | 51 | 31 | 25 | 23.8 | 27.5 | > 100 | 32.4 |  | 19 | 15.9 |  |  |  | 
9 | O=C1Cc2ccccc2C(=O)N1CCCN1CCN(CCCN2C(=O)Cc3ccccc3C2=O)CC1 | 7 | 6 | 1 | 5 | 0 |  |  |  |  |  |  |  |  |  |  | 
10 | O=C1C2CCCCC2C(=O)N1CCCC1OCC2(CO1)COC(CCCN1C(=O)C3CCCCC3C1=O)OC2 (stereo not given) | 13 | 28 | 21 | 11 | 15 |  |  |  |  |  |  |  |  |  |  | 
11 | O=C1c2nccnc2C(=O)N1CCOCCOCCN1C(=O)c2nccnc2C1=O | 6 | 35 | 47 | 39 | 38 |  |  |  |  |  |  |  |  |  |  | 
12 | O=C1c2nc[nH]c2C(=O)N1CCOCCOCCN1C(=O)c2nc[nH]c2C1=O | 49 | 32 | 27 | 37 | 19 |  |  |  |  |  |  |  |  |  |  | 
13 | O=C1Cc2ccccc2C(=O)N1CCN1C(=O)Cc2ccccc2C1=O | 4 | 16 | 6 | 8 | 9 |  |  |  |  |  |  |  |  |  |  | 
14 | O=C1c2nccnc2C(=O)N1CCCC1OCC2(CO1)COC(CCCN1C(=O)c3nccnc3C1=O)OC2 (stereo not given) | 53 | 43 | 35 | 49 | 20 | 22.7 | 12.4 | 55.9 | 28.2 | 2.5 - 4.5 | 43.7 | 20.1 | 2.5 - 4.5 | 2.5 - 4.5 | 2.5 - 4.5 | 2.5 - 4.5
15 | O=C1Cc2ccccc2C(=O)N1CCOCCOCCN1C(=O)Cc2ccccc2C1=O | 1 | 5 | 0 | 1 | 0 |  |  |  |  |  |  |  |  |  |  | 
16 | O=C1CNCC(=O)N1CCOCCOCCN1C(=O)CNCC1=O | 0 | 3 | 0 | 1 | 0 |  |  |  |  |  |  |  |  |  |  | 

Row | SMILES | inhibition of growth at 10 µM (HepG2 [1]) [%] | inhibition of growth at 10 µM (NCI-H522 [2]) [%] | inhibition of growth at 10 µM (HCT-15 [3]) [%] | inhibition of growth at 10 µM (T47D [4]) [%] | inhibition of growth at 10 µM (PA-1 [5]) [%] | IC50 (HCT-15 [6]) [µM] | IC50 (HepG2 [7]) [µM] | IC50 (HEK-293T) [µM] | IC50 (NCI-H522 [8]) [µM] | Ratio IC50 [9] | IC50 (PA-1 [10]) [µM] | IC50 (T47D [11]) [µM] | Ratio IC50 [12] | Ratio IC50 [13] | Ratio IC50 [14] | Ratio IC50 [15]
17 | CC(CN1C(=O)CNCC1=O)N1C(=O)CNCC1=O (stereo not given) | 22 | 16 | 12 | 20 | 3 |  |  |  |  |  |  |  |  |  |  | 
18 | O=C1c2nc[nH]c2C(=O)N1CCCN1C(=O)c2nc[nH]c2C1=O | 34 | 10 | 21 | 35 | 17 |  |  |  |  |  |  |  |  |  |  | 
19 | O=C1c2nc[nH]c2C(=O)N1CCCC1OCC2(CO1)COC(CCCN1C(=O)c3nc[nH]c3C1=O)OC2 (stereo not given) | 31 | 27 | 11 | 19 | 15 |  |  |  |  |  |  |  |  |  |  | 
20 | O=P1(N(CCCl)CCCl)NCCCO1 (stereo not given) [CYCLOPHOSPHAMIDE ANHYDROUS] | 22 | 11 | 10 | 23 | 24 | 76.3 | 52.3 | > 100 | 69.9 |  |  | 69 |  |  |  | 
21 | O=C1C2CCCCC2C(=O)N1CCCN1CCN(CCCN2C(=O)C3CCCCC3C2=O)CC1 (stereo not given) | 19 | 9 | 8 | 11 | 6 |  |  |  |  |  |  |  |  |  |  | 
22 | O=C1Cc2ccccc2C(=O)N1CCCC1OCC2(CO1)COC(CCCN1C(=O)Cc3ccccc3C1=O)OC2 (stereo not given) | 5 | 0 | 12 | 1 | 0 |  |  |  |  |  |  |  |  |  |  | 
23 | O=C1C2CC=CCC2C(=O)N1CCCN1CCN(CCCN2C(=O)C3CC=CCC3C2=O)CC1 (stereo not given) | 39 | 37 | 18 | 29 | 10 |  |  |  |  |  |  |  |  |  |  | 
24 | CC(CN1C(=O)Cc2ccccc2C1=O)N1C(=O)Cc2ccccc2C1=O (stereo not given) | 21 | 16 | 11 | 26 | 3 |  |  |  |  |  |  |  |  |  |  | 
25 | CC(CN1C(=O)c2nccnc2C1=O)N1C(=O)c2nccnc2C1=O (stereo not given) | 1 | 4 | 21 | 6 | 1 |  |  |  |  |  |  |  |  |  |  | 
26 | O=C1c2nccnc2C(=O)N1CCN1C(=O)c2nccnc2C1=O | 7 | 30 | 39 | 11 | 4 |  |  |  |  |  |  |  |  |  |  | 
27 | O=C1c2nccnc2C(=O)N1CCCN1CCN(CCCN2C(=O)c3nccnc3C2=O)CC1 | 20 | 19 | 10 | 15 | 18 |  |  |  |  |  |  |  |  |  |  | 
28 | O=C1c2nc[nH]c2C(=O)N1CCCN1CCN(CCCN2C(=O)c3nc[nH]c3C2=O)CC1 | 1 | 2 | 0 | 0 | 0 |  |  |  |  |  |  |  |  |  |  | 
29 | O=c1[nH]cc(F)c(=O)[nH]1 [FLUOROURACIL] | 17 | 27 | 12 | 24 | 7 |  | 32.9 | > 100 | 55.6 |  |  |  |  |  |  | 
30 | O=C1c2nccnc2C(=O)N1CCCN1C(=O)c2nccnc2C1=O | 1 | 0 | 5 | 13 | 16 |  |  |  |  |  |  |  |  |  |  | 
31 | O=C1Cc2ccccc2C(=O)N1CCCN1C(=O)Cc2ccccc2C1=O | 5 | 1 | 7 | 11 | 15 |  |  |  |  |  |  |  |  |  |  | 
32 | O=C1CNCC(=O)N1CCCN1C(=O)CNCC1=O | 35 | 30 | 2 | 31 | 19 |  |  |  |  |  |  |  |  |  |  | 
